Results on two compounds are retold here after ChEMBL document CHEMBL4196112, “Design of Selective sPLA2-X Inhibitor (-)-2-{2-[Carbamoyl-6-(trifluoromethoxy)-1H-indol-1-yl]pyridine-2-yl}propanoic Acid” (ACS Med Chem Lett, 2018).

As usually defined, the IC50 is the concentration needed to halve the response being measured. The IC90 is the concentration at which the effect reaches the 90% level. A low value points to an effect from little substance.

The target of experiment [1] is Phospholipase A2, membrane associated (Homo sapiens) (UniProt P14555). Nature of the experiment: Inhibition of sPLA2-2A (unknown origin) at 10 uM using 1-palmitoyl-2-oleoyl-sn-glycero-3-phosphocholine as substrate pretreated for 20 mins followed by substrate addition and measured after 60 mins by NEFA based assay.
For experiment [2], the target named is T1, Group 10 secretory phospholipase A2 (Homo sapiens, UniProt O15496).
T1 sequence (O15496 whole entry): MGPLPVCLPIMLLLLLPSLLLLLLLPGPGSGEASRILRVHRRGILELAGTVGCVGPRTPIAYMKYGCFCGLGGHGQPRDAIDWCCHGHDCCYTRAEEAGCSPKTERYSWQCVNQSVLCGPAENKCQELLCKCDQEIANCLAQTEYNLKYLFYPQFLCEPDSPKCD
Nature of the experiment: Inhibition of sPLA2-10 (unknown origin) using 1-palmitoyl-2-oleoyl-sn-glycero-3-phosphocholine as substrate pretreated for 20 mins followed by substrate addition and measured after 60 mins by NEFA based assay.

For experiment [3], the target named is T2, Phospholipase A2 group V (Homo sapiens) (UniProt P39877).
T2 sequence (whole entry): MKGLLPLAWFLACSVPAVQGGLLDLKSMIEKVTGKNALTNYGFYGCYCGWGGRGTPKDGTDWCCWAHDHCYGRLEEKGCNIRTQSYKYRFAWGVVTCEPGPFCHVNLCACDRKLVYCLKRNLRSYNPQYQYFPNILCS
Description: Inhibition of sPLA2-5 (unknown origin) at 10 uM using 1-palmitoyl-2-oleoyl-sn-glycero-3-phosphocholine as substrate pretreated for 20 mins followed by substrate addition and measured after 60 mins by NEFA based assay.

For experiment [4], the system named is Mus musculus. Nature of the experiment: Anti-atherosclerosis activity in ApoE knockout pro-atherogenic western diet-induced Tac mouse carotid artery ligation model of atherosclerosis assessed as reduction in plasma free fatty acid levels at 150 umol/kg/day mixed with food measured for 3 weeks. The class given is functional, organism-based.
Experiment [5] relates to Mus musculus. Nature of the experiment: Anti-atherosclerosis activity in ApoE knockout pro-atherogenic western diet-induced Tac mouse carotid artery ligation model of atherosclerosis assessed as reduction in plasma free cholesterol levels at 150 umol/kg/day mixed with food measured for 3 weeks. The class given is functional, organism-based.
The subject of experiment [6] is Mus musculus. Description: Anti-atherosclerosis activity in ApoE knockout pro-atherogenic western diet-induced Tac mouse carotid artery ligation model of atherosclerosis assessed as reduction in plasma triglyceride levels at 150 umol/kg/day mixed with food measured for 3 weeks. The experiment is classed as functional, organism-based.
Experiment [7] is filed under the species Homo sapiens. Description: Selectivity ratio of IC50 for sPLA2-5 (unknown origin) to IC50 for sPLA2-10 (unknown origin).
Experiment [8] concerns Mus musculus. Description: Anti-atherosclerosis activity in ApoE knockout pro-atherogenic western diet-induced Tac mouse carotid artery ligation model of atherosclerosis assessed as reduction in plasma lipoprotein-associated cholesterol fraction levels at 75 umol/kg/day mixed with food measured for 3 weeks. The class given is functional, organism-based.
Experiment [9] relates to Mus musculus. Nature of the experiment: Anti-atherosclerosis activity in ApoE knockout pro-atherogenic western diet-induced Tac mouse carotid artery ligation model of atherosclerosis assessed as reduction in thickness of artery wall at 75 to 150 umol/kg/day mixed with food measured for 3 weeks by ultrasound biomicroscopy. The experiment is classed as functional, organism-based.

Experiment [10] is filed under the species Homo sapiens. Nature of the experiment: Selectivity ratio of IC50 for sPLA2-2A (unknown origin) to IC50 for sPLA2-10 (unknown origin).
In experiment [11] the target is Group 10 secretory phospholipase A2 (Mus musculus) (UniProt Q9QXX3). Nature of the experiment: Inhibition of mouse sPLA2-10.
Experiment [12] concerns Mus musculus. Nature of the experiment: Anti-atherosclerosis activity in ApoE knockout pro-atherogenic western diet-induced Tac mouse carotid artery ligation model of atherosclerosis assessed as reduction in plasma free fatty acid levels at 75 umol/kg/day mixed with food measured for 3 weeks. The experiment is classed as functional, organism-based.
The test system of experiment [13] is Mus musculus. Nature of the experiment: Anti-atherosclerosis activity in ApoE knockout pro-atherogenic western diet-induced Tac mouse carotid artery ligation model of atherosclerosis assessed as reduction in plasma esterified cholesterol levels at 150 umol/kg/day mixed with food measured for 3 weeks. The class given is functional, organism-based.
Experiment [14] relates to Mus musculus. Nature of the experiment: Anti-atherosclerosis activity in ApoE knockout pro-atherogenic western diet-induced Tac mouse carotid artery ligation model of atherosclerosis assessed as reduction in plasma free cholesterol levels at 75 umol/kg/day mixed with food measured for 3 weeks. The class given is functional, organism-based.
Experiment [15] concerns Mus musculus. Description: Anti-atherosclerosis activity in ApoE knockout pro-atherogenic western diet-induced Tac mouse carotid artery ligation model of atherosclerosis assessed as reduction in heart rate at 75 to 150 umol/kg/day mixed with food measured for 3 weeks by doppler echocardiography. The class given is functional, organism-based.
Experiment [16] deals with Mus musculus. Nature of the experiment: Anti-atherosclerosis activity in ApoE knockout pro-atherogenic western diet-induced Tac mouse carotid artery ligation model of atherosclerosis assessed as reduction in neointima and media formation at 75 to 150 umol/kg/day mixed with food measured for 3 weeks. The class given is functional, organism-based.
Experiment [17] addresses Group 10 secretory phospholipase A2 (Homo sapiens) (UniProt O15496).
Description: Inhibition of recombinant human sPLA2-10 using human HDL as substrate pretreated for 20 mins followed by substrate addition and measured after 60 mins by NEFA based assay
In experiment [18] the test system is Mus musculus. Description: Anti-atherosclerosis activity in ApoE knockout pro-atherogenic western diet-induced Tac mouse carotid artery ligation model of atherosclerosis assessed as increase in lumen thickness at 75 to 150 umol/kg/day mixed with food measured for 3 weeks by ultrasound biomicroscopy. The class given is functional, organism-based.
Experiment [19] concerns Mus musculus. Description: Anti-atherosclerosis activity in ApoE knockout pro-atherogenic western diet-induced Tac mouse carotid artery ligation model of atherosclerosis assessed as reduction in coronary flow reserve at 75 to 150 umol/kg/day mixed with food measured for 3 weeks by doppler echocardiography. The class given is functional, organism-based.
For experiment [20], the system named is Mus musculus. Description: Anti-atherosclerosis activity in ApoE knockout pro-atherogenic western diet-induced Tac mouse carotid artery ligation model of atherosclerosis assessed as reduction in plasma lipoprotein-associated cholesterol fraction levels at 150 umol/kg/day mixed with food measured for 3 weeks. The class given is functional, organism-based.

Experiment [21] concerns Mus musculus. Description: Anti-atherosclerosis activity in ApoE knockout pro-atherogenic western diet-induced Tac mouse carotid artery ligation model of atherosclerosis assessed as reduction in plasma esterified cholesterol levels at 75 umol/kg/day mixed with food measured for 3 weeks. The experiment is classed as functional, organism-based.
For experiment [22], the system named is Mus musculus. Description: Anti-atherosclerosis activity in ApoE knockout pro-atherogenic western diet-induced Tac mouse carotid artery ligation model of atherosclerosis assessed as reduction in plasma triglyceride levels at 75 umol/kg/day mixed with food measured for 3 weeks. The experiment is classed as functional, organism-based.

The structures appear in SMILES notation. The source made the active and inactive calls. No cut-off for these calls is given here.

Sequence of Group 10 secretory phospholipase A2 (Mus musculus) (Q9QXX3 whole entry): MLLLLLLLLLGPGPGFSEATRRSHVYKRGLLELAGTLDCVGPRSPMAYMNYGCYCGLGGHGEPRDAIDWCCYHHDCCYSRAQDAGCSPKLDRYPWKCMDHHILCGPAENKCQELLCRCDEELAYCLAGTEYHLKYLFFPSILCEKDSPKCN
Sequence of Phospholipase A2, membrane associated (Homo sapiens) (P14555 whole entry): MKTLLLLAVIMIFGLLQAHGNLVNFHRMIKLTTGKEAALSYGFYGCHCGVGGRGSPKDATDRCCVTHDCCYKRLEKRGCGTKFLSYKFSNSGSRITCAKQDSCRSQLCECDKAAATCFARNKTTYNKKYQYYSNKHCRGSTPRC

As for `NC(=O)c1cc2ccc(OC(F)(F)F)cc2n1-c1ccc(=O)n(CCC(=O)O)c1`, the inhibition result in [1] and in [3] was “inactive” throughout. Also, the IC50 in experiment [2] came to 4.8 µM.

Regarding `CC(CC(=O)O)c1cccc(-n2c(C(N)=O)cc3ccc(OC(F)(F)F)cc32)n1` (stereo in doubt; (-)-17), the outcome in [4], in experiment [5], in experiment [6], in experiment [13] and in experiment [20] was Active. Besides, the values for the Ratio IC50 in [7] and in experiment [10] were 390 and 45, respectively. For the same compound, the result in experiment [8], in experiment [9], in experiment [12], in experiment [14], in experiment [15] and in [16] was inactive. The outcome in experiment [18], in [19], in [21] and in experiment [22] was inactive. Moreover, the IC90 in experiment [11] is 820 nM; in experiment [17], 362 nM.
